In patent US12605382B2, “Pharmaceutical composition for preventing, alleviating, or treating cancer containing 2,6-dichloro-4-(4-(4-hydroxycyclohexylamino)-7H- pyrrolo[2,3-d]pyrimidin-5-yl)phenol as active ingredient” (JBKLAB CO., LTD., priority 2021, dated 2026):

What was measured:
SKOV-3 = experiment: Cell viability alone and in combination with cisplatin; assay type: cell-based, Human; details: 1 μM alone
Protocol: (§1) Human ovarian cancer cell lines (SKOV-3 and OVCAR-3) were treated with control (no treatment), 0.1 μM of the compound of Example 1, 1 μM of cisplatin, and 0.1 μM of the compound of Example 1/1 μM of cisplatin, and the cell viability of SKOV-3 and OVCAR-3 was confirmed.

OVCAR-3 = experiment: as above; assay type: cell-based, Human; details: 1 μM alone
Protocol: as §1

Hep3B [1] = experiment: Clonogenic assay; assay type: cell-based; details: 2.5 and 5 μM, 10 days
Protocol: (§2) HepG2 and Hep3B were each seeded in 12-well plates at the density of 3×10^3 cells/well and cultured for 24 hours. Then, Sorafenib and the compound of Example 1 were treated thereto at 2.5 and 5 μM each and cultured for 10 days. Upon completion of the culture, the cells were washed with PBS, fixed with 37% formaldehyde, and stained with 0.01% crystal violet. After staining, the cells were washed with distilled water and the colonies of stained cells were photographed.

HepG2 [2] = experiment: Clonogenic assay; assay type: cell-based; details: 2.5 and 5 μM, 10 days
Protocol: as §2

Hep3B [3] = experiment: WST-8 cell viability assay, hepatocellular carcinoma cell line; assay type: cell-based; details: 24, 48 and 72 hours
Protocol: (§3) Specifically, the WST-8 assay to check the cell viability of HepG2 and Hep3B, which are hepatocellular carcinoma cell lines shown in FIGS. 7A-7C and 8A-8C, was performed as follows. HepG2 and Hep3B were each seeded in 96-well plates at the density of 5×10^3 cells/well and cultured for 24 hours. Then, Sorafenib and OPT-0139 were diluted stepwise at a twofold concentration and then treated to the plates at different concentrations, followed by culture for 24, 48, and 72 hours. […] of WST-8 solution was added to each well of the plate, and the absorbance was measured with a microplate reader using a 450 nm optical filter to measure the formazan produced by the reducing factors in living cells.
(§4) Therefore, the number of living cells could be measured by measuring absorbance.

HepG2 [4] = experiment: as above; assay type: cell-based; details: 24, 48 and 72 hours
Protocol: as §3, §4

SK Hep1 = experiment: Cell viability alone and in combination with sorafenib; assay type: cell-based, Human; details: 1 μM alone
Protocol: (§5) Human liver cancer cell lines (SK Hep1 and Huh-7) were treated with control (no treatment), 0.1 μM of the compound of Example 1, 1 μM of sorafenib, and 0.1 μM of the compound of Example 1/1 μM of sorafenib, and the cell viability of SK Hep1 and Huh-7 was confirmed.

Huh-7 = experiment: as above; assay type: cell-based, Human; details: 1 μM alone
Protocol: as §5

Q: Which results are given for `N.N.[Cl][Pt][Cl]` [cisplatin, reference compound]?
A: cell viability (SKOV-3): suppressed; cell viability (OVCAR-3): suppressed

Q: `CNC(=O)c1cc(Oc2ccc(NC(=O)Nc3ccc(Cl)c(C(F)(F)F)c3)cc2)ccn1` [Sorafenib, reference compound] was tested. Which “number of colonies, treated vs not treated” value (Hep3B [1]) did it give?
A: The value was “clear difference in the number of colonies”.

Q: And the “number of colonies, treated vs not treated” value (HepG2 [2])?
A: The value was “clear difference in the number of colonies”.

Q: What about the cell viability (Hep3B [3]) of the same compound?
A: The cell viability was “decreased the cell viability dose and time dependently”.

Q: And the cell viability (HepG2 [4])?
A: The cell viability was “decreased the cell viability dose and time dependently”.

Q: And the cell viability (SK Hep1)?
A: The cell viability was “suppressed”.

Q: What about the cell viability (Huh-7) of the same compound?
A: The cell viability was “suppressed”.
